# Data reported in patent publication US10556860B2, “hTERT modulators and methods of use” (Arizona Board of Regents on Behalf of the University of …, priority 2015, dated 2020).
# Key:
# [1] = test system: pGL3 constructs that contain the G124A, G124/125A, G138/139A, and G146A mutations; assay: Luciferase assay, somatic mutant constructs in MCF7 cells; format: cell-based, human; conditions: 24 h
# Description: Luciferase assay. From gDNA extracted from HeLa cells, the hTERT core promoter region, including −350 bp to +12 from the transcription start site, was amplified using a pair of primers, including KpnI and NheI restriction sites, for cloning of pGL3-hTERT with WT promoter sequence. Mutant constructs were generated by PCR-based site-directed mutagenesis. The sequence of each construct was confirmed by sequencing analysis. MCF7 cells in 24-well plate were transfected with 200 ng of pGL3 construct and 5 ng of pRL-TK by Fugene® HD Transfection Reagent and then incubated for 6 h. Media were replaced by fresh ones and the cells were treated with GTC365 or BRACO-19. The same volume of DMSO served as a control. After 24 h of incubation, cells were lysed by passive lysis buffer (Promega) and subjected to dual-luciferase assay (Promega) using an FB12 luminometer. The ratio of firefly to renilla luciferase activity was normalized to the DMSO to obtain the relative luciferase activity.
# The effect of GTC365 on the somatic mutants in the hTERT promoter region was also examined by transfecting cells with pGL3 constructs that contain the G124A, G124/125A, G138/139A, and G146A mutations.
# [2] = test system: G138/139A mutant hTERT G-quadruplex; assay: CD melting (Tm), G138/139A mutant; format: binding, human; conditions: 2 equiv
# Description: Circular dichroism. Oligomers of WT, G124A, G124/125A, G138/139A and G146A were synthesized and HPSF-purified by MGW Operon, Inc. For CD analysis, oligomers (5 μM) in a buffer containing 10 mM Tris-HCl (pH 7.5) and 140 mM KCl were annealed. For the CD analysis of the complex of oligomers and compounds, oligomers (5 μM) in a buffer containing 10 mM Tris-HCl (pH 7.5) and 5 mM KCl for GTC365 or 1 mM KCl for BRACO-19 were annealed. Oligomers and GTC365 or BRACO-19 were incubated overnight at room temperature. For the full-length of C-rich strand, the oligomer in a buffer of 10 mM Na cacodylate (pH 6.6) was annealed and then incubated with GTC365 overnight. CD analysis was conducted on a Jasco 810 spectropolarimeter (Jasco, Easton, Md.) using a quartz cell with 1 mm of path length, 1 nm of band width, and 1 s of response time for spectra at 20° C. Melting curves for the determination of Tm were obtained by recording ellipticity at 262 nm with increasing temperatures from 25° C. to 95° C. at a rate of 1.6° C./min. Tm of the C-rich strand with GTC365 was obtained from the CD signal at 286 nm within 10-60° C.
# CD and DMS footprinting analyses were conducted to characterize the binding of GTC365 and BRACO-19 to the 5-12 G-quadruplex. […] To verify the effects of compounds on the thermal stability of the WT and the mutant G-quadruplexes, Tms were determined by CD. […]
# [3] = test system: caspase-3; assay: Caspase assay in MCF7 cells; format: cell-based, human; conditions: 0.5-1 μM, 48 h, relative to DMSO
# Description: Caspase assay. MCF7 cells in a 6-well plate were treated with GTC365 for 48 h. The caspase-3 assay was conducted using an Apoalert Caspase 3 Fluorescent Assay Kit (Clontech) with DEVD-AFC as a substrate of capase-3 following the manufacturer's instruction. Fluorescence intensity of released AFC was measured using a BioTek Synergy HT with excitation at 400 nm and emission at 505 nm. The relative caspase-3 activity compared to the DMSO was obtained.
# Indeed at 0.5-1 μM, the BAX/BCL2 ratio was increased by over 2-fold and the capase-3 activity was increased by 47% (FIGS. 11 and 12).
smiles,measurement,setting,value
N=C(N)NCCCS(=O)(=O)Nc1ccc(Nc2c3ccccc3nc3cc([N+](=O)[O-])ccc23)cc1 [GTC365],luciferase activity of the mutants,[1],decreased luciferase activity of the mutants in a dose-dependent manner
same,Tm more increased compared to the WT,[2],6-7 °C
same,increase of caspase-3 activity,[3],47%
